According to the supplement of paper PMC10920090:

Tests used:
MDA-MB-231 [1] = experiment: drug sensitivity score (DSS), cytotoxicity CellTox Green; higher = more cytotoxic; extreme values may be limits of the assay; conditions: 72 h
MDA-MB-231 [2] = experiment: drug sensitivity score (DSS), cell viability CellTiter-Glo; higher = more sensitive; extreme values may be limits of the assay; conditions: 72 h
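Wherever drug sensitivity score (DSS), cytotoxicity CellTox Green is given: DSS summarises each dose–response curve by combining IC50, EC50, maximal inhibition and efficacy across drug concentrations.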

Structure (SMILES)	drug sensitivity score (MDA-MB-231 [1]; shRNA: shPPFIA1_1) [DSS]	drug sensitivity score (MDA-MB-231 [1]; shRNA: shScramble) [DSS]	drug sensitivity score (MDA-MB-231 [2]; shRNA: shPPFIA1_1) [DSS]	drug sensitivity score (MDA-MB-231 [2]; shRNA: shScramble) [DSS]
C=CC(=O)N1CCC[C@@H](n2nc(-c3ccc(Oc4ccccc4)cc3)c3c(N)ncnc32)C1 [Ibrutinib]	0	0	0	0
Clc1ccccc1C(c1ccccc1)(c1ccccc1)n1cccn1 [TRAM-34]	0	0	0	0
CN1CC[C@H](c2c(O)cc(O)c3c(=O)cc(-c4ccccc4Cl)oc23)[C@H](O)C1 [Alvocidib]	11.9	7.4	10.6	15.2
CC[C@H](Nc1ncnc2[nH]cnc12)c1nc2cccc(F)c2c(=O)n1-c1ccccc1 [Idelalisib]	0	0	0	0.9
NC(=O)c1cccc2cn(-c3ccc([C@@H]4CCCNC4)cc3)nc12 [Niraparib]	0	0	2.8	1.9
Cc1c(F)cc(C(=O)NC2CC2)cc1-c1ccc(C(=O)NCC(C)(C)C)cn1 [Losmapimod]	0	0	1.7	0
N#CC1(c2ccc(NC(=O)c3cccnc3NCc3ccncc3)cc2)CCCC1 [Apatinib]	0	0	0	0
CC(C)[C@H](C(=O)Nc1ccc(C(=O)NO)cc1)c1ccccc1 [AR-42]	12.6	7.5	9.3	9.5
COc1cc(O)c2c(c1)/C=C/C[C@H](O)[C@H](O)C(=O)/C=C\C[C@H](C)OC2=O [(5Z)-7-Oxozeaenol]	0.4	2.7	0	2.1
COc1c(C)cnc(Cn2cnc3c(Cl)nc(N)nc32)c1C [BIIB021]	3.1	2.8	10.8	15.9
C[C@@H]1C=C2C(=O)O[C@@H]3CC[C@H](C1)[C@]23O [Galiellalactone]	2.9	1.8	0.2	2.1
Nc1ccccc1NC(=O)c1ccc(CNc2nccc(-c3cccnc3)n2)cc1 [Mocetinostat]	10.5	4.8	3.6	8.3
O=C(O)CNC(=O)c1c(O)c2ccccc2n(Cc2ccccc2)c1=O [IOX-2]	0	0	5	4
COc1cc(N2CCN(C)CC2)ccc1Nc1nccc(-c2cn(C)c3cnccc23)n1 [AZ191]	0	2.9	3.6	6.8
Cc1c(CN2CCN(C(=O)[C@H](C)O)CC2)sc2c(N3CCOCC3)nc(-c3cnc(N)nc3)nc12 [Apitolisib]	0	0	0	5.6
C[C@@H]1CN(Cc2ccc(F)cc2)[C@@H](C)CN1C(=O)c1cc2c(C(=O)C(=O)N(C)C)cn(C)c2cc1Cl [Talmapimod]	0	0	0	0
c1cn2cc(-c3ccc4cn[nH]c4c3)nc(Nc3ccc(N4CCOCC4)cc3)c2n1 [Entospletinib]	10.3	0	0.9	0
O=P1(NCCCl)OCCCN1CCCl (stereo not given) [Ifosfamide]	0	0	0	0
O=S(=O)(c1cccc2cnccc12)N1CCCNCC1 [Fasudil]	1.6	2.1	2.6	1.4
CN1CCN(c2cc(C(=O)Nc3ccc4c(c3)-c3c(c(C(N)=O)nn3-c3ccc(F)cc3)CC4)c(Cl)cn2)CC1 [PHA 408]	5.2	6.9	4.2	6.3
C[C@]12CC[C@@H]3c4ccc(OC(=O)N(CCCl)CCCl)cc4CC[C@H]3[C@@H]1CC[C@@H]2O [Estramustine]	0	0	0	0
O=C(O)c1ccc(-c2c[nH]c3ncc(-c4ccccc4)cc23)cc1C1CCCC1	0	0	0	0

Structure (SMILES)	drug sensitivity score (MDA-MB-231 [1]; shRNA: shPPFIA1_1) [DSS]	drug sensitivity score (MDA-MB-231 [1]; shRNA: shScramble) [DSS]	drug sensitivity score (MDA-MB-231 [2]; shRNA: shPPFIA1_1) [DSS]	drug sensitivity score (MDA-MB-231 [2]; shRNA: shScramble) [DSS]
CCNC(=O)C[C@@H]1N=C(c2ccc(Cl)cc2)c2cc(OC)ccc2-n2c(C)nnc21	0	0	0	6.2
C=CC(=O)Nc1cccc(Nc2nc(Nc3ccc(N4CCN(C(C)=O)CC4)cc3OC)ncc2C(F)(F)F)c1 [Rociletinib]	0	0	0	2.8
CNC(=O)c1nn(C)c2c1C(C)(C)Cc1cnc(Nc3ccc(N4CCN(C)CC4)cc3)nc1-2 [Milciclib]	0.3	0	0.9	5.1
CC(C)[C@H]1C(=O)N[C@@H](CCCNC(=N)N)C(=O)NCC(=O)N[C@@H](CC(=O)O)C(=O)N[C@H](Cc2ccccc2)C(=O)N1C [Cilengitide]	0	0	0	0
CS(=O)(=O)CCNCc1ccc(-c2ccc3ncnc(Nc4ccc(OCc5cccc(F)c5)c(Cl)c4)c3c2)o1 [Lapatinib]	0	0	0	0
CS(=O)(=O)N1CCN(Cc2cc3nc(-c4cccc5[nH]ncc45)nc(N4CCOCC4)c3s2)CC1 [Pictilisib]	0	0	0	2.9
N#CC(c1ccnc(OCc2ccc(CN3CCOCC3)cc2)n1)c1nc2ccccc2s1 (stereo not given) [Bentamapimod]	0	0	1.6	3.7
CC(=O)O[C@]1(C(C)=O)CC[C@H]2[C@@H]3C=C(C)C4=CC(=O)CC[C@]4(C)[C@H]3CC[C@@]21C [Megestrol acetate]	0	0	0	0
CC(C)c1cc(-c2n[nH]c(=O)n2-c2ccc3c(ccn3C)c2)c(O)cc1O [Ganetespib]	1.2	3	9.9	11.5
C[C@@H](Oc1ccc2[nH]nc(/C=C/c3cnn(CCO)c3)c2c1)c1c(Cl)cncc1Cl	0	0	0	4.8
COc1cc2c(cc1O)CC[C@@H]1[C@@H]2CC[C@]2(C)[C@@H](O)CC[C@@H]12 [2-methoxyestradiol]	0	0.3	0.7	2.9
COC(=O)N[C@@H](C)CNc1nccc(-c2cn(C(C)C)nc2-c2cc(Cl)cc(NS(C)(=O)=O)c2F)n1 [Encorafenib]	0	0	0	1.3
Cc1nn(C)c(COc2ccc(N3CCN(S(=O)(=O)N(C)C)CC3)cc2)c1-c1cccc2c(CCCOc3cccc4ccccc34)c(C(=O)O)n(CCN3CCOCC3)c12	2.4	7.1	13.3	4.2
CCCC(CCC)C(=O)O [Valproic acid]	0	0	0	0
c1cc(CN2CCCNCCNCCCNCC2)ccc1CN1CCCNCCNCCCNCC1 [Plerixafor]	0	0	0	0
NC1(c2ccc(-c3nc4ccn5c(=O)[nH]nc5c4cc3-c3ccccc3)cc2)CCC1 [MK-2206]	0	0	6.5	6.8
O=C(c1cc(Cc2n[nH]c(=O)c3ccccc23)ccc1F)N1CCN(C(=O)C2CC2)CC1 [Olaparib]	0	0	0.1	0.8
CCCNC(=O)Nc1ccc(Oc2ncnc3cc(OC)c(OC)cc23)cc1Cl [KRN-633]	0	0	0	0.9
CC(C)(C)c1nc(-c2cccc(NS(=O)(=O)c3c(F)cccc3F)c2F)c(-c2ccnc(N)n2)s1 [Dabrafenib]	0.9	0.9	0	0
CNC(=O)c1ccc(N2C(=S)N(c3ccc(C#N)c(C(F)(F)F)c3)C(=O)C2(C)C)cc1F [Enzalutamide]	0	0	0	0
Cc1ccccc1C(C(=O)NC1CCCCC1)N(C(=O)Cn1ccnc1C)c1cccc(F)c1 (stereo not given) [AGI-5198]	0	0	0	0
CC(C)C(=O)Nc1ccc([N+](=O)[O-])c(C(F)(F)F)c1 [Flutamide]	0	0	0	0.3

Structure (SMILES)	drug sensitivity score (MDA-MB-231 [1]; shRNA: shPPFIA1_1) [DSS]	drug sensitivity score (MDA-MB-231 [1]; shRNA: shScramble) [DSS]	drug sensitivity score (MDA-MB-231 [2]; shRNA: shPPFIA1_1) [DSS]	drug sensitivity score (MDA-MB-231 [2]; shRNA: shScramble) [DSS]
FC(F)(F)c1ccc(CNc2ccc(Cc3c[nH]c4ncc(Cl)cc34)cn2)cn1 [Pexidartinib]	0	0	0	0
C[C@@H]1C[C@H]2[C@@H]3CCC4=CC(=O)C=C[C@]4(C)[C@@]3(F)[C@@H](O)C[C@]2(C)[C@@]1(O)C(=O)CO [Dexamethasone]	0	0	0	0
CS(=O)(=O)c1ccc(C2=C(c3ccccc3)C(=O)OC2)cc1 [Rofecoxib]	0	0	0	0
CC(=O)N(O)CCCCCNC(=O)CCC(=O)N(O)CCCCCNC(=O)CCC(=O)N(O)CCCCCN [Deferoxamine]	0	0	2.5	2.7
COc1c(OCCCN2CCOCC2)ccc2c1N=C(NC(=O)c1cnc(N)nc1)N1CCN=C21 [Copanlisib]	10.2	0	0	6.3
O=C1CCC(N2C(=O)c3ccccc3C2=O)C(=O)N1 (stereo not given) [Thalidomide]	0	0	0	0
O=C(Nc1ccncc1)C(=O)c1cn(Cc2ccc(Cl)cc2)c2ccccc12 [Indibulin]	2.3	0	0	3.1
O=c1ncn2nc(Sc3ccc(F)cc3F)ccc2c1-c1c(Cl)cccc1Cl [VX 745]	0	0	0	0
CCNC(=O)c1noc(-c2cc(C(C)C)c(O)cc2O)c1-c1ccc(CN2CCOCC2)cc1 [Luminespib]	0	2	9.5	12.2
CC[C@@]1(O)C(=O)OCc2c1cc1n(c2=O)Cc2cc3ccccc3nc2-1 [Camptothecin]	2	0.7	0.8	10.4
CC(C)(C)c1cc(NC(=O)Nc2ccc(-c3cn4c(n3)sc3cc(OCCN5CCOCC5)ccc34)cc2)no1 [Quizartinib]	0	0	0	0
Nc1ncnc2c1c(COc1cccc(Cl)c1)nn2C1CCOCC1	0	0	0	1.2
O=C(c1ccc(OCCN2CCCCC2)cc1)c1c(-c2ccc(O)cc2)sc2cc(O)ccc12 [Raloxifene]	0.4	0	3.5	3.1
CC/C(=C(\c1ccccc1)c1ccc(OCCN(C)C)cc1)c1ccccc1 [Tamoxifen]	6.3	1.8	1.8	1
O=C(O)CCCc1ccc(N(CCCl)CCCl)cc1 [Chlorambucil]	0	0	0	0
C/C(=C\c1csc(C)n1)[C@@H]1C[C@@H]2O[C@]2(C)CCC[C@H](C)[C@H](O)[C@@H](C)C(=O)C(C)(C)[C@@H](O)CC(=O)N1 [Ixabepilone]	3.8	3.1	0	5
COc1cc(Nc2ncc3c(n2)-c2ccc(Cl)cc2C(c2c(F)cccc2OC)=NC3)ccc1C(=O)O [Alisertib]	0.7	0	0.8	0.1
COCC1(CO)C(=O)C2CCN1CC2 (stereo not given) [APR-246]	0	0	1.3	0
CC1(C)NC(=O)N(c2ccc([N+](=O)[O-])c(C(F)(F)F)c2)C1=O [Nilutamide]	0	0	0	0
CCN(CC)CCN(Cc1ccc(-c2ccc(C(F)(F)F)cc2)cc1)C(=O)Cn1c(SCc2ccc(F)cc2)nc(=O)c2c1CCC2 [Darapladib]	13.1	0	0	0
O=C(O)CC[C@H]1CC[C@@](c2cc(F)ccc2F)(S(=O)(=O)c2ccc(Cl)cc2)CC1 [MK-0752]	0	0	0	0.2
